For eleven molecules, remaining activity results are on record in US12209079B2 (GENERAL INCORPORATED ASSOCIATION PHARMA VALLEY PROJECT …, priority 2017, dated 2025).

In assay [1] the target is rhTDO (recombinant human TDO) (Homo sapiens, UniProt P48775). Put plainly: Enzyme assay using rhTDO (rate of kynurenine production). It counts as biochemical. The settings on record: 2 h; final concentration of the compound 10 μM; rate relative to reaction without compound; read-out: rhTDO-mediated kynurenine production. On the procedure:
4 μL of a compound solution was added to 176 μL of a rhTDO reaction solution (0.5 M potassium phosphate buffer (20 μL), 0.2 M ascorbic acid (20 μL), 0.5 mM methylene blue (4 μL), 10 mg/mL catalase (2 μL), H2O (128 μL), and rhTDO (2 μL)). The mixture was pipetted and preincubated at 37° C. for 10 minutes. Then, the whole amount was brought to 200 μL by the addition of 20 μL of a 20 mM aqueous tryptophan solution, and the mixture was pipetted again and reacted at 37° C. for 120 minutes. After the reaction, the enzymatic reaction was terminated by the addition of 40 μL of a 30% [v/v] aqueous trichloroacetic acid solution to the reaction solution. The mixture was well stirred by pipetting and heated at 50° C. for 15 minutes so that N-formylkynurenine was converted to kynurenine. The reaction solution thus heated was centrifuged (15,000 rpm, 5 min, 24° C.), and 150 μL of the supernatant was transferred to a transparent 96-well flat-bottomed plate, followed by the measurement of absorbance at 490 nm using SpectraMax M5 SK (background measurement). After the measurement, a solution of 2% [w/v] p-dimethylbenzaldehyde in acetic acid was added at 150 μL/well and reacted for 5 minutes, followed by the measurement of absorbance at 490 nm again. The rate of kynurenine production was calculated according to the following expression. Rate of kynurenine production (%) for each compound in the case of using rhTDO={(Absorbance at 490 nm in the tryptophan-containing aqueous solution comprising rhTDO and the compound of the present invention−Absorbance of the background)/(Absorbance at 490 nm in the tryptophan-containing aqueous solution without the addition of the compound solution−Absorbance of the background)}×100 IDO Cell-Based Assay Protocol

For assay [2], the target named is T1, IDO in A431 cells (Homo sapiens, UniProt P14902).
T1 construct: endogenous in cells; host or cells: A431 cells, IFN-γ stimulated
Put plainly: IDO cell-based assay, kynurenine production in IFN-γ stimulated A431 cells. The settings on record: A-431, 24 h; final concentration of the compound 10 μM; rate relative to culture without compound. On the procedure:
A431 cells (3.0×10^5 cells/mL) suspended in a culture medium for assay (D-MEM; Wako 040-30095, 5% FBS, 50 units/mL penicillin, 50 μg/mL streptomycin, and 2 mM L-glutamine) were inoculated at 100 μL/well to a transparent 96-well flat-bottomed plate and cultured at 37° C. for 24 hours in 5% CO2. The culture medium was removed from the cells thus cultured. A tryptophan-containing culture medium (culture medium for assay supplemented with 178 μM L-tryptophan) was added at 80 μL/well, and further, a compound solution was added at 10 μL/well. The cells were preincubated for 1 hour. Then, the whole amount was brought to 100 μL/well by the addition of 10 μL/well of IFN-γ diluted into 100 ng/mL with a tryptophan-containing culture medium, and the cells were cultured for 24 hours. After the culture, absorbance was measured at 460 nm using SpectraMax MSSK (Molecular Devices, LLC) (background measurement). After the measurement, a kynurenine quantification reagent (prepared with 7% [v/v] aqueous trichloroacetic acid solution and a solution of 2% [w/v] p-dimethylbenzaldehyde in acetic acid at 2:5 [v/v]) was added at 200 μL/well and reacted for 5 minutes, followed by the measurement of absorbance at 460 nm again. The rate of kynurenine production was calculated according to the following expression. Rate of kynurenine production (%) for each compound in the case of using A431 cells={(Absorbance at 460 nm in the tryptophan-containing culture medium comprising the A431 cells and the solution of the compound of the present invention−Absorbance of the background)/(Absorbance at 460 nm in the tryptophan-containing culture medium without the addition of the compound solution−Absorbance of the background)}×100 TDO Cell-Based Assay Protocol

For assay [3], the target named is T2, TDO in A172 cells (Homo sapiens, UniProt P48775).
T2 construct: endogenous in cells; host or cells: A172 cells
As to the kind of experiment: TDO cell-based assay, kynurenine production in A172 cells. As to conditions: A 172; final concentration of the compound 10 μM; rate relative to culture without compound. On the procedure:
A172 cells (3.0×10^5 cells/mL) suspended in a culture medium for assay (PRMI-1640; Wako 186-02155, 5% FBS, 50 units/mL penicillin, and 50 μg/mL streptomycin) were inoculated at 100 μL/well to a transparent 96-well flat-bottomed plate and cultured at 37° C. for 24 hours in 5% CO2. The culture medium was removed from the cells thus cultured. A culture medium for assay was added at 80 μL/well, and further, a compound solution was added at 10 μL/well. The cells were preincubated for 1 hour. Then, the whole amount was brought to 100 μL/well by the addition of 10 μL/well of a 5 mM aqueous tryptophan solution (final concentration of L-tryptophan: 524 μM), and the cells were cultured for 24 hours. After the culture, absorbance was measured at 460 nm using SpectraMax MSSK (Molecular Devices, LLC) (background measurement). After the measurement, a kynurenine quantification reagent (prepared with 7% [v/v] aqueous trichloroacetic acid solution and a solution of 2% [w/v] p-dimethylbenzaldehyde in acetic acid at 2:5 [v/v]) was added at 200 μL/well and reacted for 5 minutes, followed by the measurement of absorbance at 460 nm again. The rate of kynurenine production was calculated according to the following expression. Rate of kynurenine production (%) for each compound in the case of using A172 cells={(Absorbance at 460 nm in the tryptophan-containing culture medium comprising the A172 cells and the solution of the compound of the present invention−Absorbance of the background)/(Absorbance at 460 nm in the tryptophan-containing culture medium without the addition of the compound solution−Absorbance of the background)}×100

Assay [4] has as its target rhIDO (recombinant human IDO) (Homo sapiens, UniProt P14902). As to the kind of experiment: Enzyme assay using rhIDO (rate of kynurenine production). As to conditions: 2 h; final concentration of the compound 10 μM; rate relative to reaction without compound; read-out: rhIDO-mediated kynurenine production. It counts as biochemical. On the procedure:
Enzyme Assay Protocol Using rhIDO (Recombinant Human IDO)
4 μL of a compound solution was added to 176 μL of a rhIDO reaction solution (0.5 M potassium phosphate buffer (20 μL), 0.2 M ascorbic acid (20 μL), 0.5 mM methylene blue (4 μL), 10 mg/mL catalase (2 μL), H2O (128 μL), and rhIDO (2 μL)). The mixture was pipetted and preincubated at 37° C. for 10 minutes. Then, the whole amount was brought to 200 μL by the addition of 20 μL of a 2 mM aqueous tryptophan solution, and the mixture was pipetted again and reacted at 37° C. for 120 minutes. After the reaction, the enzymatic reaction was terminated by the addition of 40 μL of a 30% [v/v] aqueous trichloroacetic acid solution to the reaction solution. The mixture was well stirred by pipetting and heated at 50° C. for 15 minutes so that N-formylkynurenine was converted to kynurenine. The reaction solution thus heated was centrifuged (15,000 rpm, 5 min, 24° C.), and 150 μL of the supernatant was transferred to a transparent 96-well flat-bottomed plate, followed by the measurement of absorbance at 490 nm using SpectraMax MSSK (background measurement). After the measurement, a solution of 2% [w/v] p-dimethylbenzaldehyde in acetic acid was added at 150 μL/well and reacted for 5 minutes, followed by the measurement of absorbance at 490 nm again. The rate of kynurenine production was calculated according to the following expression. Rate of kynurenine production (%) for each compound in the case of using rhIDO={(Absorbance at 490 nm in the tryptophan-containing aqueous solution comprising rhIDO and the compound of the present invention−Absorbance of the background)/(Absorbance at 490 nm in the tryptophan-containing aqueous solution without the addition of the compound solution−Absorbance of the background)}×100 Enzyme Assay Protocol Using rhTDO (Recombinant Human TDO)

rhTDO (recombinant human TDO), sequence (P48775 whole entry): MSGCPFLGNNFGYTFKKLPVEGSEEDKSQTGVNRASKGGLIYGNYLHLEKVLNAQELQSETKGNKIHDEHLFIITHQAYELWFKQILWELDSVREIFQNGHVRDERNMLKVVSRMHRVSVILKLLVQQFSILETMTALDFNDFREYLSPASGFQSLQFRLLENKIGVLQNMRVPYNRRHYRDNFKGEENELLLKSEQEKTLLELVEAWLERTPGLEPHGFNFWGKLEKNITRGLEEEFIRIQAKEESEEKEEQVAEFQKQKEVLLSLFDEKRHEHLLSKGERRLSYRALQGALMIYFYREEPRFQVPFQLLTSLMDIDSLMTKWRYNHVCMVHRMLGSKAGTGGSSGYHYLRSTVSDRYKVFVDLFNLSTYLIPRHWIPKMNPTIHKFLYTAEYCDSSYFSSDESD
T2 sequence (P48775 whole entry): as above
rhIDO (recombinant human IDO), sequence (P14902 whole entry): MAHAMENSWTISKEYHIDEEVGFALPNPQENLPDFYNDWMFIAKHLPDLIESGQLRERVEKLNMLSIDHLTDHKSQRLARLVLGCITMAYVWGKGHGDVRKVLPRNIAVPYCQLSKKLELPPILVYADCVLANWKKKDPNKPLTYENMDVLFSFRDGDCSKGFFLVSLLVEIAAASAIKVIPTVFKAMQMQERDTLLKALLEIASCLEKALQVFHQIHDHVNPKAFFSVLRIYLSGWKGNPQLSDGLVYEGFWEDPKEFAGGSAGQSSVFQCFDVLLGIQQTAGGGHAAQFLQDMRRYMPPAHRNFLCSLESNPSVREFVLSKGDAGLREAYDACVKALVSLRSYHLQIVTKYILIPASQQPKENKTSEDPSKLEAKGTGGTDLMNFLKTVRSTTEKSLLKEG
T1 sequence (P14902 whole entry): as above

For `Clc1ccc(Cl)c(CN2CN=C(SCc3ccccc3CSC3=NCN(Cc4cc(Cl)ccc4Cl)CN3)NC2)c1` [Compound 18, 1,2-bis(((5-(2,5-dichlorobenzyl)-1,4,5,6-tetrahydro-1,3,5-triazin-2-yl)thio)methyl)benzene], the remaining activity at 10 µM in assay [1] was 27%; in assay [2], 7%; in assay [3], -1%; in assay [4], 23%.

Take `Brc1cccc(CCN2CN=C(SCc3ccccc3CSC3=NCN(CCc4cccc(Br)c4)CN3)NC2)c1` [Compound 19, 1,2-bis(((5-(3-bromophenethyl)-1,4,5,6-tetrahydro-1,3,5-triazin-2-yl)thio)methyl)benzene]: the remaining activity at 10 µM amounted to 46% in assay [1], 5% in assay [2], 1% in assay [3] and 43% in assay [4].

On to `Brc1ccc(CCN2CN=C(SCc3ccccc3CSC3=NCN(CCc4ccc(Br)cc4)CN3)NC2)cc1` [Compound 20, 1,2-bis(((5-(4-bromophenethyl)-1,4,5,6-tetrahydro-1,3,5-triazin-2-yl)thio)methyl)benzene], for which the remaining activity at 10 µM turned out to be 44% in assay [1], 6% in assay [2], 0% in assay [3] and 27% in assay [4].

`Clc1ccc(CCN2CN=C(SCc3ccccc3CSC3=NCN(CCc4ccc(Cl)cc4Cl)CN3)NC2)c(Cl)c1` [Compound 21, 1,2-bis(((5-(2,4-dichlorophenethyl)-1,4,5,6-tetrahydro-1,3,5-triazin-2-yl)thio)methyl)benzene]: the remaining activity at 10 µM in assay [1] is 54%; in assay [2], 6%; in assay [3], -1%; in assay [4] it was 30%.

`Clc1ccc(CCN2CN=C(SCc3ccccc3CSC3=NCN(CCc4ccc(Cl)c(Cl)c4)CN3)NC2)cc1Cl` [Compound 22, 1,2-bis(((5-(3,4-dichlorophenethyl)-1,4,5,6-tetrahydro-1,3,5-triazin-2-yl)thio)methyl)benzene]: the remaining activity at 10 µM in assay [1] was 21%; in assay [2], 6%; in assay [3] it was -1%; in assay [4], 20%.

In the case of `Cc1ccc(CCN2CN=C(SCc3ccccc3CSC3=NCN(CCc4ccc(C)c(C)c4)CN3)NC2)cc1C` [Compound 23, 1,2-bis(((5-(3,4-dimethylphenethyl)-1,4,5,6-tetrahydro-1,3,5-triazin-2-yl)thio)methyl)benzene], the remaining activity at 10 µM in assay [1] was 24%; in assay [2] it was 6%; in assay [3], -4%; in assay [4], 18%.

On to `Cc1ccc(C)c(CCN2CN=C(SCc3ccccc3CSC3=NCN(CCc4cc(C)ccc4C)CN3)NC2)c1` [Compound 24, 1,2-bis(((5-(2,5-dimethylphenethyl)-1,4,5,6-tetrahydro-1,3,5-triazin-2-yl)thio)methyl)benzene], for which the remaining activity at 10 µM is 25% in assay [1], 4% in assay [2], -2% in assay [3] and 27% in assay [4].

With `COc1ccc(CN2CN=C(SCc3ccccc3CSC3=NCN(Cc4ccc(OC)cc4)CN3)NC2)cc1` [Compound 26, 1,2-bis(((5-(4-methoxybenzyl)-1,4,5,6-tetrahydro-1,3,5-triazin-2-yl)thio)methyl)benzene], the remaining activity at 10 µM in assay [1] is 44%; in assay [2], 5%; in assay [3], -5%; in assay [4] it was 36%.

Take `COc1ccc(CN2CN=C(SCc3ccccc3CSC3=NCN(Cc4ccc(OC)cc4OC)CN3)NC2)c(OC)c1` [Compound 27, 1,2-bis(((5-(2,4-dimethoxybenzyl)-1,4,5,6-tetrahydro-1,3,5-triazin-2-yl)thio)methyl)benzene]: the remaining activity at 10 µM in assay [1] was 56%; in assay [2], 7%; in assay [3] it was -3%; in assay [4], 33%.

Consider `Clc1ccccc1CCN1CN=C(SCc2ccccc2CSC2=NCN(CCc3ccccc3Cl)CN2)NC1` [Compound 28, 1,2-bis(((5-(2-chlorophenethyl)-1,4,5,6-tetrahydro-1,3,5-triazin-2-yl)thio)methyl)benzene], for which the remaining activity at 10 µM came to 53% in assay [1], 7% in assay [2], 3% in assay [3] and 40% in assay [4].

On to `O=C1CC(=O)NC(SCc2ccccc2CSC2=NC(=O)CC(=O)N2)=N1` [Compound 30, 2,2′-((1,2-phenylenebis(methylene))bis(sulfanediyl))bis(pyrimidine-4,6(1H,5H)-dione)], for which the remaining activity at 10 µM in assay [1] came out at 126%; in assay [2], 82%; in assay [3], 94%; in assay [4], 141%.
